Assay results reported in patent publication US4996358A, “Hydroxylamine bearing amino acid derivatives as collagenase inhibitors” (Hoffmann-La Roche Inc., priority 1986, dated 1991).

molecular target: T1, human synovial collagenase (Homo sapiens, UniProt P03956); assay: In vitro inhibition of collagenase from human synovial fibroblast culture (synthetic peptide substrate cleavage); assay type: biochemical; conditions: trypsin-activated procollagenase; 0.5 mmol N-acetyl-L-prolyl-L-leucylglycyl-L-leucyl-L-leucylglycyl ester substrate; borate buffer pH 7.5, CaCl2; 37° C., 1 hour; read-out: Inhibitory activity against human synovial collagenase IC50
T1 construct: endogenous in cells; host or cells: human synovial fibroblast culture; procollagenase partially purified from the culture medium
T1 sequence (P03956 100-469): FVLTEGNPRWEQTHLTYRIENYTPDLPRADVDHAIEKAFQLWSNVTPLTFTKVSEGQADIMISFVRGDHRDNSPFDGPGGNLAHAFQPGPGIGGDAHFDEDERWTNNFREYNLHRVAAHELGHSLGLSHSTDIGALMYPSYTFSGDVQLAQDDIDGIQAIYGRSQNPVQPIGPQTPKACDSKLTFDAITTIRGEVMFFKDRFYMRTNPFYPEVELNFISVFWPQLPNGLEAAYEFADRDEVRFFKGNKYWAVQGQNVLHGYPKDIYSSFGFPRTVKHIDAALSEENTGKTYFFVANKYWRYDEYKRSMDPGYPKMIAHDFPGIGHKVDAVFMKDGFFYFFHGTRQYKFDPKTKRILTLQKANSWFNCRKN
Experimental: Procollagenase was partially purified from the cell culture medium by negative adsorption on DEAE Sephadex A-50 at pH 8.1 and activated by treatment with tryspin. The inhibitory activity of the present hydroxylamine derivatives was determined using a synthetic substrate, N-acetyl-L-prolyl-L-leucylglycyl-L-leucyl-L-leucylglycyl […], for this collagenase. The enzyme was added to a solution of 0.5 mmol of substrate in 50 mmol of borate buffer (pH 7.5) containing 1 mmol of calcium chloride and a known concentration of peptide derivative. The resulting solution was incubated at 37° C. for 1 hour. Enzyme digestion of the substrate was terminated by the addition of an equal volume of 2% (weight/volume) sodium hydrogen carbonate solution in 50% aqueous methanol containing 0.1% (weight/volume) of picrylsulfonic acid. The solution obtained was incubated at 37° C. for an additional 1 hour in order to allow reaction between the L-leucyl-L-leucyl-glycyl ethyl ester generated by the cleavage of the substrate and the picrylsulfonic acid to give trinitrophenyl-L-leucyl-L-leucylglycyl ethyl ester. The reaction was terminated and stabilized by acidification with IN hydrochloric acid. The concentration of trinitrophenyl-L-leucyl-L-leucylglycyl ethyl ester was determined by spectrophotometry at 335 nm. The IC50 is that concentration of hydroxylamine derivative of formula I of the invention in the enzyme digestion which reduces substrate cleavage to 50% of that achieved by the enzyme alone.

Row | Compound | IC50
1 | CCOC(=O)CNC(=O)[C@H](CC(C)C)NC(=O)[C@H](CC(C)C)[C@H](CCCCN1C(=O)c2ccccc2C1=O)C(=O)NO [F, [4-(N-hydroxyamino) 3(S)-phthaloylaminobutyl-2(R)-isobutylsuccinyl]-L-leucylglycine ethyl ester] | 0.012 µM
2 | CCOC(=O)CNC(=O)[C@H](CC(C)C)NC(=O)[C@@H](CC(=O)NO)CC(C)C [A, [4-(N-Hydroxyamino) 2(R)-isobutylsuccinyl]-L-leucylglycine ethyl ester] | 0.025 µM
3 | CCOC(=O)[C@H](C)NC(=O)[C@H](CC(C)C)NC(=O)[C@@H](CC(=O)NO)CC(C)C [B, [4-(N-hydroxyamino) 2(R)-isobutylsuccinyl]-L-leucyl-L-alanine ethyl ester] | 0.0085 µM

Further lines, results first:

Row | IC50 | Compound
4 | 0.3 µM | CCOC(=O)CNC(=O)[C@H](CC(C)C)NC(=O)C(CC(C)C)CN(O)C=O (mixture of isomers) [C, [N-formyl-N-hydroxy 2(RS)-isobutyl-3-aminopropionyl]-L-leucylglycine ethyl ester]
5 | 0.038 µM | CC(C)C[C@H](CC(=O)NO)C(=O)NC1CCCCCCCCCCNC1=O (stereo partly drawn) [E, [4-(N-hydroxyamino) 2(R)-isobutylsuccinyl]-3(RS)-aminolaurolactam]
6 | 0.03 µM | CCOC(=O)[C@H](C)NC(=O)[C@H](CCCCNC(=O)CN)NC(=O)[C@@H](CC(=O)NO)CC(C)C [D, N^α -[4-(N-hydroxyamino) 2(R)-isobutylsuccinyl]-N^ε -glycyl-L-lysyl-L-alanine ethyl ester]
